Key:
Substance-K receptor [1] = target: T1, Substance-K receptor (Homo sapiens, UniProt P21452); assay: Compound was tested for it's binding affinity against human Tachykinin receptor 2
T1 sequence (P21452 whole entry): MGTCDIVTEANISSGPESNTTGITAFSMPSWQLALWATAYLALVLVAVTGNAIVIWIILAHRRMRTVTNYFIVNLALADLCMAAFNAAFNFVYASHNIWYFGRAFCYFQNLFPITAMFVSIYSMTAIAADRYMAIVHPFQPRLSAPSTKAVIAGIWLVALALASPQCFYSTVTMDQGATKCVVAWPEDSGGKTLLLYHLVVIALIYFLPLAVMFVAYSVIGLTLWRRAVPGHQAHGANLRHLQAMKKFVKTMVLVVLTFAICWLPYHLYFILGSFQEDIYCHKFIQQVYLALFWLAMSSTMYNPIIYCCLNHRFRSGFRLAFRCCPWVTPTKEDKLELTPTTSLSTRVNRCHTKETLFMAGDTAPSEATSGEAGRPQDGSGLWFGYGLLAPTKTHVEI

Substance-K receptor [2] = target: T1, Substance-K receptor; assay: Functional affinity was evaluated by measuring the intracellular calcium concentration in CHO cells transfected with the human Tachykinin receptor 2 using Fura-2; type: cell-based; details: read-out: pA2 (converted)

Row | Compound | Ki (Substance-K receptor [1]) [nM] | Kb (Substance-K receptor [2]) [nM]
1 | CN(CCc1c[nH]c2ccccc12)C(=O)c1ccccc1C(=O)N(CCCN1CCSCC1)CCc1c[nH]c2ccccc12 | 10 | 10
2 | O=C(c1ccccc1C(=O)N(CCCN1CCSCC1)CCc1c[nH]c2ccccc12)N(CCCN1CCSCC1)CCc1c[nH]c2ccccc12 | 3.98 | 3.98
3 | CN(C)CCN(C)C(=O)c1nccnc1C(=O)N[C@@H]1CC(=O)N[C@@H](Cc2c[nH]c3ccccc23)C(=O)N[C@@H](Cc2ccccc2)C(=O)N[C@H](Cc2ccccc2)CNC1=O | 2 | 
4 | O=C(c1ccccc1C(=O)N(CCCN1CCOCC1)CCc1c[nH]c2ccccc12)N(CCCN1CCOCC1)CCc1c[nH]c2ccccc12 | 31.6 | 
5 | O=C(NCCc1c[nH]c2ccccc12)c1nccnc1C(=O)N(CCCN1CCOCC1)CCc1c[nH]c2ccccc12 | 501 | 
6 | O=C(c1nccnc1C(=O)N(CCCN1CCOCC1)CCc1c[nH]c2ccccc12)N(CCCN1CCOCC1)CCc1c[nH]c2ccccc12 | 126 | 
